Each block holds one molecule with its values, some of them ahead of it.
Target: T1, Bcl-2 protein (Recombinant Human Bcl-2 Protein) (Homo sapiens, UniProt P10415)
T1 construct: purchased Novus NBP2-34889
Test: Binding evaluation of mixture library compounds to Bcl-2 using AS-MS (affinity selection mass spectrometry)
Details: for ASMS ratio (%) n = 1: replicate n = 1; for ASMS ratio (%) n = 1 / ASMS ratio (%) n = 2: ASMS Ratio(%)=(A−C)/B×100; for ASMS ratio (%) n = 2: replicate n = 2
Method in brief: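 Bcl-2 binding is scored from LC/MS signal retained with protein through gel-filtration spin columns, normalised to unfiltered and protein-free controls. Incubation: 20 μM protein, […] per compound, 1 h, 23° C.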

[1] = AS-MS, mixture of 1200 compounds, Bcl-2
[2] = AS-MS on the mixture of 1200 library compounds

T1 sequence (P10415 whole entry): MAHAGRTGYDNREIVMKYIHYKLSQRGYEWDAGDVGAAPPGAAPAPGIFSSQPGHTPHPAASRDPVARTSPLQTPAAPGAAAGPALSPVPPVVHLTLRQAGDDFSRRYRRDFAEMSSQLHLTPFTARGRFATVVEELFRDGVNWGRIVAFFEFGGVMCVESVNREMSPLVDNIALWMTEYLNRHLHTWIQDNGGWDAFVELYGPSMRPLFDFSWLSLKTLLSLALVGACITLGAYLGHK

Molecule: CCOc1cncc(-c2ccc(CN3CCN(c4ccc(C(=O)NCC56CC7CC(CC(C7)C5)C6)cc4)CC3)c(CC)c2)c1 [B1A050-01, N-(1-Adamantylmethyl)-4-[4-[[4-(5-ethoxypyridin-3-yl)-2-ethylphenyl]methyl]piperazin-1-yl]benzamide]
ASMS ratio (%) n = 1 [1]: 0.6%
ASMS ratio (%) n = 2 [1]: 3.0%

Molecule: CCOc1cccc(-c2csc(C(=O)N3CCN(c4ccc(C(=O)NCC56CC7CC(CC(C7)C5)C6)cc4)CC3)c2)c1 [B1A023-01, N-(1-Adamantylmethyl)-4-[4-[4-(3-ethoxyphenyl)thiophene-2-carbonyl]piperazin-1-yl]benzamide]
ASMS ratio (%) n = 1 [1]: 4.0%
ASMS ratio (%) n = 2 [1]: 0.8%

Molecule: CCOc1cccc(-c2ccc(C(=O)N3CCN(c4ccc(C(=O)NS(=O)(=O)CC56CC7CC(CC(C7)C5)C6)cc4)CC3)cc2C)c1 [B2A025-01, N-(1-Adamantylmethylsulfonyl)-4-[4-[4-(3-ethoxyphenyl)-3-methylbenzoyl]piperazin-1-yl]benzamide]
ASMS ratio (%) n = 1 (AS-MS, mixture library, Bcl-2): 4.6%
ASMS ratio (%) n = 2 (AS-MS, mixture library, Bcl-2): −2.7%

Molecule: CCOc1cccc(-c2cc(C(=O)N3CCN(c4ccc(C(=O)NCC(F)(F)F)nn4)CC3)cc(C(C)(C)C)c2)c1 [B1K015-01, 6-[4-[3-tert-Butyl-5-(3-ethoxyphenyl)benzoyl]piperazin-1-yl]-N-(2,2,2-trifluoroethyl)pyridazine-3-carboxamide]
ASMS ratio (%) n = 1 [1]: 2.9%
ASMS ratio (%) n = 2 [1]: −1.8%

Molecule: CCOc1cncc(-c2ccc(CN3CCN(c4ccc(C(=O)Nc5ccc(OC)cc5)cc4)CC3)c3ccccc23)c1 [B1O066-01, 4-[4-[[4-(5-Ethoxypyridin-3-yl)naphthalen-1-yl]methyl]piperazin-1-yl]-N-(4-methoxyphenyl)benzamide]
ASMS ratio (%) n = 1 [2]: 12.1%
ASMS ratio (%) n = 2 [2]: 2.7%

Molecule: 4-[4-[[3-Ethoxy-5-(5-ethoxypyridin-3-yl)phenyl]methyl]piperazin-1-yl]-N-propylbenzamide [B1M011-01]
ASMS ratio (%) n = 1 [1]: 18.6%
ASMS ratio (%) n = 2 [1]: 7.5%

Molecule: CCOc1cccc(-c2ccc(CN3CCN(c4ccc(C(=O)N(CC)CC)cc4)CC3)c(CC)c2)c1 [B4J049-01, 4-[4-[[4-(3-Ethoxyphenyl)-2-ethylphenyl]methyl]piperazin-1-yl]-N,N-diethylbenzamide]
ASMS ratio (%) n = 1 [2]: 7.1%
ASMS ratio (%) n = 2 [2]: −1.4%

Molecule: CCOc1cncc(-c2cc(C(=O)N3CCN(c4ccc(C(=O)NCC(F)(F)F)nn4)CC3)cc(C(F)(F)F)c2)c1 [B1K018-01, 6-[4-[3-(5-Ethoxypyridin-3-yl)-5-(trifluoromethyl)benzoyl]piperazin-1-yl]-N-(2,2,2-trifluoroethyl)pyridazine-3-carboxamide]
ASMS ratio (%) n = 1 [1]: −0.6%
ASMS ratio (%) n = 2 [1]: 0.5%

Molecule: CCOc1cncc(-c2ccc(C(=O)N3CCN(c4ccc(C(=O)NCC56CC7CC(CC(C7)C5)C6)nn4)CC3)cc2F)c1 [B1A006-01, N-(1-Adamantylmethyl)-6-[4-[4-(5-ethoxypyridin-3-yl)-3-fluorobenzoyl]piperazin-1-yl]pyridazine-3-carboxamide]
ASMS ratio (%) n = 1 [1]: 2.4%
ASMS ratio (%) n = 2 [1]: 9.1%

Molecule: 4-[4-[1-[4-(5-Ethoxypyridin-3-yl)-2-fluorophenyl]ethyl]piperazin-1-yl]-N-propylbenzamide [B1M006-01]
ASMS ratio (%) n = 1 [1]: 0.0%
ASMS ratio (%) n = 2 [1]: 0.0%

Now from value to molecule:

ASMS ratio (%) n = 1 (AS-MS, mixture library, Bcl-2): 0.0%
ASMS ratio (%) n = 2 (AS-MS, mixture library, Bcl-2): 0.0%
Molecule: CCOc1cccc(C#Cc2cncc(C(=O)N3CCN(c4ccc(C(=O)NS(C)(=O)=O)nn4)CC3)c2)c1 [B2I009-01, 6-[4-[5-[2-(3-Ethoxyphenyl)ethynyl]pyridine-3-carbonyl]piperazin-1-yl]-N-methylsulfonylpyridazine-3-carboxamide]

ASMS ratio (%) (n = 1): 0.0%
ASMS ratio (%) (n = 2): 0.0%
Molecule: CCOc1cccc(-c2ccccc2CCC(=O)N2CCN(c3ccc(C(=O)NS(=O)(=O)CCC(F)(F)F)cc3)CC2)c1 [B2N033-01, 4-[4-[3-[2-(3-Ethoxyphenyl)phenyl]propanoyl]piperazin-1-yl]-N-(3,3,3-trifluoropropylsulfonyl)benzamide]

ASMS ratio (%) (n = 1): 0.0%
ASMS ratio (%) (n = 2): 0.0%
Molecule: CCOc1cncc(-c2ccc(C(=O)N3CCN(c4ccc(C(=O)NS(=O)(=O)C(C)(C)C)cc4)CC3)cc2F)c1 [B2L028-01, N-tert-Butylsulfonyl-4-[4-[4-(5-ethoxypyridin-3-yl)-3-fluorobenzoyl]piperazin-1-yl]benzamide]

ASMS ratio (%) (n = 1): 0.0%
ASMS ratio (%) (n = 2): 0.0%
Molecule: CCOc1cccc(-c2ccc(CN3CCN(c4ccc(C(=O)NS(=O)(=O)c5ccc(NCCSc6ccccc6)c(C(F)(F)F)c5)nn4)CC3)cc2F)c1 [B2R077-01, 6-[4-[[4-(3-Ethoxyphenyl)-3-fluorophenyl]methyl]piperazin-1-yl]-N-[4-(2-phenylsulfanylethylamino)-3-(trifluoromethyl)phenyl]sulfonylpyridazine-3-carboxamide]

ASMS ratio (%) (n = 1): 0.0%
ASMS ratio (%) (n = 2): 0.0%
Molecule: CCOc1cncc(-c2cc(C(=O)N3CCN(c4ccc(C(=O)NS(=O)(=O)CCC(F)(F)F)nn4)CC3)cc(C(C)(C)C)c2)c1 [B2N016-01, 6-[4-[3-tert-Butyl-5-(5-ethoxypyridin-3-yl)benzoyl]piperazin-1-yl]-N-(3,3,3-trifluoropropylsulfonyl)pyridazine-3-carboxamide]

ASMS ratio (%) n = 1 [2]: −5.5%
ASMS ratio (%) n = 2 [2]: −7.2%
Molecule: CCOc1cccc(-c2cc(CN3CCN(c4ccc(C(=O)N(C)CC56CC7CC(CC(C7)C5)C6)nn4)CC3)cc(OC(F)(F)F)c2)c1 [B3A089-01, N-(1-Adamantylmethyl)-6-[4-[[3-(3-ethoxyphenyl)-5-(trifluoromethoxy)phenyl]methyl]piperazin-1-yl]-N-methylpyridazine-3-carboxamide]

ASMS ratio (%) n = 1 [2]: −4.9%
ASMS ratio (%) n = 2 [2]: −3.5%
Molecule: CCOc1cccc(C#Cc2ccccc2CN2CCN(c3ccc(C(=O)N(C)CC45CC6CC(CC(C6)C4)C5)nn3)CC2)c1 [B3A095-01, N-(1-Adamantylmethyl)-6-[4-[[2-[2-(3-ethoxyphenyl)ethynyl]phenyl]methyl]piperazin-1-yl]-N-methylpyridazine-3-carboxamide]

ASMS ratio (%) n = 1 (AS-MS, mixture library, Bcl-2): 2.0%
ASMS ratio (%) n = 2 (AS-MS, mixture library, Bcl-2): −0.4%
Molecule: CCOc1cncc(-c2ccc(C(=O)N3CCN(c4ccc(C(=O)NS(=O)(=O)CC56CC7CC(CC(C7)C5)C6)cc4)CC3)c3ccccc23)c1 [B2A036-01, N-(1-Adamantylmethylsulfonyl)-4-[4-[4-(5-ethoxypyridin-3-yl)naphthalene-1-carbonyl]piperazin-1-yl]benzamide]

ASMS ratio (%) n = 1 [2]: 3.9%
ASMS ratio (%) n = 2 [2]: −18.6%
Molecule: CCOc1cccc(-c2cc(CN3CCN(c4ccc(C(=O)N(C)CC56CC7CC(CC(C7)C5)C6)nn4)CC3)cc(OC(C)C)c2)c1 [B3A083-01, N-(1-Adamantylmethyl)-6-[4-[[3-(3-ethoxyphenyl)-5-propan-2-yloxyphenyl]methyl]piperazin-1-yl]-N-methylpyridazine-3-carboxamide]
